In patent US6355799B1, “Substituted benzene compounds, process for their preparation, and herbicidal and defoliant compositions containing them” (ISK Americas Incorporated, priority 1997, dated 2002):

How the values were obtained:
Type in all cases: in vivo
[1] = system: redroot pigweed (Amaranthus retroflexus, AMARE); test: Pre-emerge test, greenhouse herbicide activity screening; conditions: pre-emerge, rated 14 days after application, 0 = no damage, 100 = complete death
How it was run: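 Sandy loam pots; pre-emerge: sown 1 d pre-spray, surface-watered after, then bottom-watered. Post-emerge: sown 8–21 d before, 2–3 leaf stage, + 0.25% v/v NIS, bottom-watered. Acetone, 187 l/ha track spray, 15–1000 g ai/ha. 0–100 injury score, day 14.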

[2] = system: velvetleaf (Abutilon theophrasti, ABUTH); test: as above; conditions: pre-emerge, rated 14 days after application, 0 = no damage, 100 = complete death
How it was run: (§1)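 Herbicidal damage is scored 0 (none) to 100 (complete plant death) two weeks after a simulated field spray. Rates span 15–1000 g ai/ha, delivered in acetone at 187 l/ha. For post-emergence treatments, plants have 2–3 leaves and the spray carries 0.25% v/v non-ionic surfactant.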

[3] = system: large crabgrass (Digitaria sanguinalis, DIGSA); test: as above; conditions: pre-emerge, rated 14 days after application, 0 = no damage, 100 = complete death
How it was run: as §1

[4] = system: common ragweed (Ambrosia artemisizfolia L., AMBEL); test: as above; conditions: pre-emerge, rated 14 days after application, 0 = no damage, 100 = complete death
How it was run: as §1

[5] = system: green foxtail (Setaria viridis, SETVI); test: as above; conditions: pre-emerge, rated 14 days after application, 0 = no damage, 100 = complete death
How it was run: as §1

[6] = system: ivyleaf morningglory (Ipomoea hederacea, IPOHE); test: as above; conditions: pre-emerge, rated 14 days after application, 0 = no damage, 100 = complete death
How it was run: as §1

[7] = system: johnsongrass (Sorghum halepense, SORHA); test: as above; conditions: pre-emerge, rated 14 days after application, 0 = no damage, 100 = complete death
How it was run: as §1

[8] = system: lambsquarters (Chenopodium album, CHEAL); test: as above; conditions: pre-emerge, rated 14 days after application, 0 = no damage, 100 = complete death
How it was run: as §1

[9] = system: sicklepod (Cassia obtusifolia, CASOB); test: as above; conditions: pre-emerge, rated 14 days after application, 0 = no damage, 100 = complete death
How it was run: as §1

[10] = system: barnyardgrass (Echinochloa crus-galli, ECHCG); test: as above; conditions: pre-emerge, rated 14 days after application, 0 = no damage, 100 = complete death
How it was run: as §1

[11] = system: upland rice (Oryza sp., var. Tebonnet, RICE); test: Post-emerge test, crop safety; conditions: phytotoxicity rating 0-100 (0 no damage, 100 complete death), 14 days after application
How it was run: as §1

[12] = system: field corn (Zea mays L., var. Dekalb 535, CORN); test: Post-emerge test, crop safety; conditions: phytotoxicity rating 0-100 (0 no damage, 100 complete death), 14 days after application
How it was run: as §1

[13] = system: upland rice (Oryza sp., var. Tebonnet, RICE); test: Pre-emerge test, crop safety; conditions: pre-emerge, rated 14 days after application, 0 = no damage, 100 = complete death
How it was run: (§2)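 Compounds in acetone were track-sprayed at 15-1000 g ai/ha (187 l/ha) on sandy loam pots: pre-emerge one day after seeding, post-emerge at 2-3 leaf stage with 0.25% v/v non-ionic surfactant. Phytotoxicity was rated 14 days later on a 0 (no damage) to 100 (complete death) scale.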

[14] = system: field corn (Zea mays L., var. Dekalb 535, CORN); test: Pre-emerge test, crop safety; conditions: pre-emerge, rated 14 days after application, 0 = no damage, 100 = complete death
How it was run: as §2

[15] = system: velvetleaf (Abutilon theophrasti, ABUTH); test: Post-emerge test, greenhouse herbicide activity screening; conditions: phytotoxicity rating 0-100 (0 no damage, 100 complete death), 14 days after application
How it was run: (§3)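 Visual ratings on a 0-100 scale (0 no damage, 100 all plants dead) were taken at 14 days after treatment. Rates of 15-1000 g ai/ha in acetone, 187 l/ha, were sprayed onto soil one day after planting (pre-emerge) or onto 2-3 leaf plants with 0.25% v/v surfactant (post-emerge).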

[16] = system: large crabgrass (Digitaria sanguinalis, DIGSA); test: as above; conditions: phytotoxicity rating 0-100 (0 no damage, 100 complete death), 14 days after application
How it was run: as §3

[17] = system: common ragweed (Ambrosia artemisizfolia L., AMBEL); test: as above; conditions: phytotoxicity rating 0-100 (0 no damage, 100 complete death), 14 days after application
How it was run: as §3

[18] = system: ivyleaf morningglory (Ipomoea hederacea, IPOHE); test: as above; conditions: phytotoxicity rating 0-100 (0 no damage, 100 complete death), 14 days after application
How it was run: as §3

[19] = system: johnsongrass (Sorghum halepense, SORHA); test: as above; conditions: phytotoxicity rating 0-100 (0 no damage, 100 complete death), 14 days after application
How it was run: as §3

[20] = system: lambsquarters (Chenopodium album, CHEAL); test: as above; conditions: phytotoxicity rating 0-100 (0 no damage, 100 complete death), 14 days after application
How it was run: as §3

[21] = system: sicklepod (Cassia obtusifolia, CASOB); test: as above; conditions: phytotoxicity rating 0-100 (0 no damage, 100 complete death), 14 days after application
How it was run: as §3

[22] = system: barnyardgrass (Echinochloa crus-galli, ECHCG); test: as above; conditions: phytotoxicity rating 0-100 (0 no damage, 100 complete death), 14 days after application
How it was run: as §3

[23] = system: redroot pigweed (Amaranthus retroflexus, AMARE); test: as above; conditions: phytotoxicity rating 0-100 (0 no damage, 100 complete death), 14 days after application
How it was run: as §3

Structure (SMILES): COc1c(Cl)cc(F)c(-n2c(=O)cc(C(F)(F)F)n(C)c2=O)c1NC(=O)c1ccc(C(C)(C)C)cc1 [2-30]
- Pre-emerge Herbicidal Activity AMARE (phytotoxicity rating, scale 0-100) ([1]; 63 g ai/ha): 0
- Pre-emerge Herbicidal Activity AMARE (phytotoxicity rating, scale 0-100) ([1]; 250 g ai/ha): 0
- Pre-emerge Herbicidal Activity ABUTH (phytotoxicity rating, scale 0-100) ([2]; 63 g ai/ha): 0
- Pre-emerge Herbicidal Activity ABUTH (phytotoxicity rating, scale 0-100) ([2]; 250 g ai/ha): 20
- Pre-emerge Herbicidal Activity DIGSA (phytotoxicity rating, scale 0-100) ([3]; 63 g ai/ha): 0
- Pre-emerge Herbicidal Activity DIGSA (phytotoxicity rating, scale 0-100) ([3]; 250 g ai/ha): 0
- Pre-emerge Herbicidal Activity AMBEL (phytotoxicity rating, scale 0-100) ([4]; 63 g ai/ha): 0
- Pre-emerge Herbicidal Activity AMBEL (phytotoxicity rating, scale 0-100) ([4]; 250 g ai/ha): 0
- Pre-emerge Herbicidal Activity SETVI (phytotoxicity rating, scale 0-100) ([5]; 63 g ai/ha): 0
- Pre-emerge Herbicidal Activity SETVI (phytotoxicity rating, scale 0-100) ([5]; 250 g ai/ha): 20
- Pre-emerge Herbicidal Activity IPOHE (phytotoxicity rating, scale 0-100) ([6]; 63 g ai/ha): 0
- Pre-emerge Herbicidal Activity IPOHE (phytotoxicity rating, scale 0-100) ([6]; 250 g ai/ha): 0
- Pre-emerge Herbicidal Activity SORHA (phytotoxicity rating, scale 0-100) ([7]; 63 g ai/ha): 0
- Pre-emerge Herbicidal Activity SORHA (phytotoxicity rating, scale 0-100) ([7]; 250 g ai/ha): 0
- Pre-emerge Herbicidal Activity CHEAL (phytotoxicity rating, scale 0-100) ([8]; 63 g ai/ha): 0
- Pre-emerge Herbicidal Activity CHEAL (phytotoxicity rating, scale 0-100) ([8]; 250 g ai/ha): 70
- Pre-emerge Herbicidal Activity CASOB (phytotoxicity rating, scale 0-100) ([9]; 63 g ai/ha): 0
- Pre-emerge Herbicidal Activity CASOB (phytotoxicity rating, scale 0-100) ([9]; 250 g ai/ha): 0
- Pre-emerge Herbicidal Activity ECHCG (phytotoxicity rating, scale 0-100) ([10]; 63 g ai/ha): 0
- Pre-emerge Herbicidal Activity ECHCG (phytotoxicity rating, scale 0-100) ([10]; 250 g ai/ha): 0
- Post-emerge Herbicidal Activity RICE (crop damage) ([11]; 63 g ai/ha): 0
- Post-emerge Herbicidal Activity RICE (crop damage) ([11]; 250 g ai/ha): 0
- Post-emerge Herbicidal Activity CORN (crop damage) ([12]; 63 g ai/ha): 0
- Post-emerge Herbicidal Activity CORN (crop damage) ([12]; 250 g ai/ha): 0
- Pre-emerge crop damage RICE (phytotoxicity rating, scale 0-100) ([13]; 63 g ai/ha): 0
- Pre-emerge crop damage RICE (phytotoxicity rating, scale 0-100) ([13]; 250 g ai/ha): 0
- Pre-emerge crop damage CORN (phytotoxicity rating, scale 0-100) ([14]; 63 g ai/ha): 0
- Pre-emerge crop damage CORN (phytotoxicity rating, scale 0-100) ([14]; 250 g ai/ha): 0
- Post-emerge Herbicidal Activity ABUTH ([15]; 63 g ai/ha): 30
- Post-emerge Herbicidal Activity ABUTH ([15]; 250 g ai/ha): 70
- Post-emerge Herbicidal Activity DIGSA ([16]; 63 g ai/ha): 0
- Post-emerge Herbicidal Activity DIGSA ([16]; 250 g ai/ha): 0
- Post-emerge Herbicidal Activity AMBEL ([17]; 63 g ai/ha): 0
- Post-emerge Herbicidal Activity AMBEL ([17]; 250 g ai/ha): 10
- Post-emerge Herbicidal Activity IPOHE ([18]; 63 g ai/ha): 0
- Post-emerge Herbicidal Activity IPOHE ([18]; 250 g ai/ha): 20
- Post-emerge Herbicidal Activity SORHA ([19]; 63 g ai/ha): 0
- Post-emerge Herbicidal Activity SORHA ([19]; 250 g ai/ha): 0
- Post-emerge Herbicidal Activity CHEAL ([20]; 63 g ai/ha): 0
- Post-emerge Herbicidal Activity CHEAL ([20]; 250 g ai/ha): 50
- Post-emerge Herbicidal Activity CASOB ([21]; 63 g ai/ha): 0
- Post-emerge Herbicidal Activity CASOB ([21]; 250 g ai/ha): 0
- Post-emerge Herbicidal Activity ECHCG ([22]; 63 g ai/ha): 0
- Post-emerge Herbicidal Activity ECHCG ([22]; 250 g ai/ha): 0
- Post-emerge Herbicidal Activity AMARE ([23]; 63 g ai/ha): 0
- Post-emerge Herbicidal Activity AMARE ([23]; 250 g ai/ha): 20
